Patent US9034886B2, “4-aminoquinazoline derivatives and uses thereof” (Shanghai Institute of Pharmaceutical Industry, priority 2011, dated 2015)

Columns and labels:
[1] = tested on: Colo320 human colorectal cancer cell lines; experiment: In vitro anti-proliferative effect, CCK-8 method, Colo320; format: cell-based; conditions: Homo sapiens, COLO 320, Colo320 cell strain, CCK-8 method; for inhibition at 10 µM: compound at 10 μM; for inhibition at 100 µM: compound at 100 μM
Experimental: (§1) The inhibitory activities of the compounds towards Hut78 T lymphocytic leukemia cells, Jurkat E6-1 human T-cell lymphoma, PANC-1 human pancreatic cancer cells, A549 human lung cancer cells, K562 human chronic myelogenous leukemia cells, Hep3B2.1-7 human liver cancer cells, MDA-MB-435s human breast cancer cells. Colo320 human colorectal cancer cell lines, and PC-3 human prostate cancer at two concentrations of 100 μM and 10 μM were determined. The inhibition percentages were obtained through CCK-8 method.

[2] = tested on: A549 human lung cancer cells; experiment: In vitro anti-proliferative effect, CCK-8 method, A549; format: cell-based; conditions: Homo sapiens, A549
Experimental: as §1

[3] = tested on: PC-3 human prostate cancer; experiment: In vitro anti-proliferative effect, CCK-8 method, PC-3; format: cell-based; conditions: Homo sapiens, PC-3 cell strain, CCK-8 method; for inhibition at 10 µM: compound at 10 μM; for inhibition at 100 µM: compound at 100 μM
Experimental: as §1

[4] = tested on: MDA-MB-435s human breast cancer cells; experiment: In vitro anti-proliferative effect, CCK-8 method, MDA-MB-435s; format: cell-based; conditions: Homo sapiens, MDA-MB-435S
Experimental: as §1

[5] = tested on: K562 human chronic myelogenous leukemia cells; experiment: In vitro anti-proliferative effect, CCK-8 method, K562; format: cell-based; conditions: Homo sapiens, K562
Experimental: as §1

[6] = tested on: PANC-1 human pancreatic cancer cells; experiment: In vitro anti-proliferative effect, CCK-8 method, PANC-1; format: cell-based; conditions: Homo sapiens, PANC-1
Experimental: as §1

[7] = tested on: Hep3B2.1-7 human liver cancer cells; experiment: In vitro anti-proliferative effect, CCK-8 method, Hep3B; format: cell-based; conditions: Homo sapiens, Hep3B cell strain, CCK-8 method; for inhibition at 10 µM: compound at 10 μM; for inhibition at 100 µM: compound at 100 μM
Experimental: as §1

[8] = tested on: Jurkat E6-1 human T-cell lymphoma; experiment: In vitro anti-proliferative effect, CCK-8 method, Jurkat E6-1; format: cell-based; conditions: Homo sapiens, Jurkat E6.1
Experimental: as §1

[9] = molecular target: HDAC1 (Homo sapiens (Human), UniProt Q13547); experiment: In vitro inhibition of subtype HDAC1 (HDAC1 Inhibitor Drug Screening Kit, Biovision); format: biochemical; conditions: for inhibition at 1 µM / inhibition at 10 µM: read-out: % Inhibition towards HDAC1; for inhibitory activity against HDAC1 compared with MS-275: both concentrations 10 μM and 1 μM
Experimental: The in vitro inhibitory activities of the compounds towards the subtype HDAC1 were tested according to the instructions in the HDAC1 Inhibitor Drug Screening Kit (Biovision).
(1) The compounds to be tested were each individually prepared as 10 μM and 1 μM solutions and their inhibitory activities at these concentrations were tested.
Each dilution sample was placed in two wells and the enzyme inhibition IC50 of the compound was tested.

[10] = tested on: Hut78 T lymphocytic leukemia cells; experiment: In vitro anti-proliferative effect, CCK-8 method, Hut78; format: cell-based; conditions: Homo sapiens, HuT78, read-out: Hut-78 (inhibition %)
Experimental: as §1

[11] = tested on: HDACs; experiment: In vitro inhibition of HDACs (HDAC Inhibitor Drug Screening Kit, Biovision K340-100); format: biochemical
Experimental: The in vitro inhibitory activities of the compounds towards HDACs were tested according to the instructions in the HDAC Inhibitor Drug Screening Kit (Biovision/Catalog #K340-100).
(1) The compounds to be tested were each individually prepared as 2 mM, 200 μM and 40 μM solutions and their inhibitory activities at these concentrations were tested.

Sequence of HDAC1 (Q13547 whole entry): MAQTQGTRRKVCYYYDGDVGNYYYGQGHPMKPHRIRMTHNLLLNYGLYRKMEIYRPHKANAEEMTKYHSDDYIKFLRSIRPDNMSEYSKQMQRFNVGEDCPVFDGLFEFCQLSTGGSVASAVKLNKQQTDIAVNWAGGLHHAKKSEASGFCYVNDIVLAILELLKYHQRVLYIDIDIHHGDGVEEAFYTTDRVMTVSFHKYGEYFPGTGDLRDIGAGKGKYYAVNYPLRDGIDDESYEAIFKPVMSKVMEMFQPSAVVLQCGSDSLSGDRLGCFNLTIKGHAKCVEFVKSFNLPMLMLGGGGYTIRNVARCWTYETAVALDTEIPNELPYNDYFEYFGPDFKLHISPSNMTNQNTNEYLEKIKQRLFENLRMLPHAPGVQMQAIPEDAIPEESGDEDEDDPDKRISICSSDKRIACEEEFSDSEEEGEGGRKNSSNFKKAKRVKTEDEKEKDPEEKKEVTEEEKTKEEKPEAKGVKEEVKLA

| Compound | inhibition at 1 µM [9] | inhibition at 10 µM [9] | inhibition at 10 µM [1] | inhibition at 100 µM [1] | inhibition at 10 µM [2] | inhibition at 100 µM [2] | inhibition at 10 µM [3] | inhibition at 100 µM [3] | inhibition at 10 µM [4] | inhibition at 100 µM [4] | inhibition at 10 µM [5] | inhibition at 100 µM [5] | inhibition at 10 µM [6] | inhibition at 100 µM [6] | inhibition at 10 µM [7] | inhibition at 100 µM [7] | inhibition at 10 µM [8] | inhibition at 100 µM [8] | inhibition at 10 µM [10] | inhibition at 100 µM [10] | other results |
| --- | --- | --- | --- | --- | --- | --- | --- | --- | --- | --- | --- | --- | --- | --- | --- | --- | --- | --- | --- | --- | --- |
| COc1cccc2ncnc(Nc3ccc(C(=O)Nc4ccccc4N)cc3)c12 [Compound V-7, N-(2-aminophenyl)-4-(5-methoxy-quinazoline-4-amino)benzamide] | 50.1% | 78.4% | 8.9% | 48.5% | -7.4% | 24.9% | 8.1% | 49.8% | -16.5% | 85.4% | 29.7% | 82.6% | 1.1% | 35.2% | 8.1% | 53.2% | 26.4% | 91% | 10.7% | 60.3% | inhibitory activity against HDAC1 compared with MS-275 [9]: superior to that of MS-275; IC50 [11]: 3.99 µM; Inhibition percentage (%) towards HDACs ([11]; 40 μM): 6.5%; Inhibition percentage (%) towards HDACs ([11]; 200 μM): 22.1%; Inhibition percentage (%) towards HDACs ([11]; 2 mM): 39.2% |
| Nc1ccccc1NC(=O)c1ccc(Nc2ncnc3ccc(F)cc23)cc1 [Compound V-12, N-(2-aminophenyl)-4-(6-fluoroquinazoline-4-amino)benzamide] | 15% | 49.1% | 2.4% | 46.1% | -9% | 55.1% | 25.5% | 61.3% | 5.7% | 77.2% | 49.3% | 69.8% | 15.8% | 21.9% | 4.7% | 67.1% | 25% | 87.4% | 62.5% | 62.5% | IC50 [11]: 0.92 µM; Inhibition percentage (%) towards HDACs ([11]; 40 μM): 16.8%; Inhibition percentage (%) towards HDACs ([11]; 200 μM): 43.0%; Inhibition percentage (%) towards HDACs ([11]; 2 mM): 85.2% |
| COCCOc1cc2ncnc(Nc3ccc(C(=O)Nc4ccncc4N)cc3)c2cc1OCCOC [Compound V-16] | 59.1% | 87.4% | -2.3% | -17.1% | 48.7% | 65.7% | 5.1% | 3.4% | 49.8% | 50.4% | 42.8% | 29.7% | 8% | 7.8% | 24.8% | 13.5% | 37.2% | 22.1% | 26.2% | 20.7% | inhibitory activity against HDAC1 compared with MS-275 [9]: superior to that of MS-275; IC50 [11]: 6.89 µM; Inhibition percentage (%) towards HDACs ([11]; 40 μM): 24.8%; Inhibition percentage (%) towards HDACs ([11]; 200 μM): 56.8%; Inhibition percentage (%) towards HDACs ([11]; 2 mM): 58.6% |

Further lines, with some results ahead:

| inhibition at 1 µM [9] | inhibition at 10 µM [9] | Compound | inhibition at 10 µM [1] | inhibition at 100 µM [1] | inhibition at 10 µM [2] | inhibition at 100 µM [2] | inhibition at 10 µM [3] | inhibition at 100 µM [3] | inhibition at 10 µM [4] | inhibition at 100 µM [4] | inhibition at 10 µM [5] | inhibition at 100 µM [5] | inhibition at 10 µM [6] | inhibition at 100 µM [6] | inhibition at 10 µM [7] | inhibition at 100 µM [7] | inhibition at 10 µM [8] | inhibition at 100 µM [8] | inhibition at 10 µM [10] | inhibition at 100 µM [10] | other results |
| --- | --- | --- | --- | --- | --- | --- | --- | --- | --- | --- | --- | --- | --- | --- | --- | --- | --- | --- | --- | --- | --- |
| 67.1% | 78.8% | COCCOc1cc2ncnc(Nc3ccc(C(=O)Nc4ccccc4N)cc3)c2cc1OCCOC [Compound V-15, N-(2-aminophenyl)-4-(6,7-dimethoxyethoxyquinazoline-4-amino)benzamide] | 15.3% | 3.9% | 4.7% | 3.5% | 10.9% | 8.6% | 21.6% | 21% | 27.2% | 11.9% | 7.2% | 0.5% | 16.3% | 11.2% | 33.7% | 13.9% | 70.7% | 80.4% | inhibitory activity against HDAC1 compared with MS-275 [9]: superior to that of MS-275; IC50 [11]: 9.4 µM; Inhibition percentage (%) towards HDACs ([11]; 40 μM): 13.7%; Inhibition percentage (%) towards HDACs ([11]; 200 μM): 51.5%; Inhibition percentage (%) towards HDACs ([11]; 2 mM): 61.4% |
| 21.4% | 62.7% | COc1cccc2ncnc(Nc3ccc(C(=O)Nc4ccncc4N)cc3)c12 [Compound V-8] | -1.8% | 86.4% | -5.9% | 38% | 29.7% | 89.3% | 14.2% | 94.5% | 56.9% | 94.5% | -1.8% | 34.9% | 5% | 90.4% | 36.4% | 96.3% | 17.5% | 83.6% | IC50 [11]: 7.76 µM; Inhibition percentage (%) towards HDACs ([11]; 40 μM): 8.9%; Inhibition percentage (%) towards HDACs ([11]; 200 μM): 41.1%; Inhibition percentage (%) towards HDACs ([11]; 2 mM): 46.2% |
| 45.2% | 62.6% | COc1cccc2c(Nc3ccc(C(=O)Nc4cc(F)ccc4N)cc3)ncnc12 [Compound V-10, N-(2-amino-5-fluorophenyl)-4-(8-methoxy-quinazoline-4-amino)benzamide] | 6.4% | 23.3% | -4.4% | 40.1% | 13.7% | 57.4% | 9.4% | 82.9% | 45% | 62.1% | 13% | 19% | 3.7% | 31.3% | 25.3% | 72.8% | 8.1% | 47.5% | IC50 [11]: 1.04 µM; inhibitory activity according to in vitro IC50 value against HDACs compared with MS-275 [11]: better inhibitory activities than MS-275; Inhibition percentage (%) towards HDACs ([11]; 40 μM): 12.0%; Inhibition percentage (%) towards HDACs ([11]; 200 μM): 32.9%; Inhibition percentage (%) towards HDACs ([11]; 2 mM): 77.2% |
